Data as given in patent US9283285B2, “Stable nanocomposition comprising docetaxel, process for the preparation thereof, its use and pharmaceutical compositions containing it” (BBS Nanotechnology Ltd., priority 2013, dated 2016).

Tested on: HeLa cells, A2780 cells
Experiment: growth profile of cells by Real Time Analyser (xCELLigence RTCA, Roche)
Assay type: cell-based, human
Settings: HeLa and A2780 cells; same concentration of docetaxel; FIG. 2
Excerpt: FIG. 2A, 2B: HeLa and A2780 measured by Real Time Analyser (Roche). These figures show the growth profile of HeLa cells (A), and A2780 cells (B) after treating with docetaxel drug molecules (D), docetaxel-loaded nanoparticles (NP) and control cells (C). The injected volume contained the same concentration of docetaxel.
The xCELLigence RTCA HT Instrument from Roche Applied Science uses gold electrodes at the bottom surface of microplate wells as sensors to which an alternating current is applied. Cells that are grown as adherent monolayers on top of such electrodes influence the alternating current at the electrodes by changing the electrical resistance (impedance). The degree of this change is primarily determined by the number of cells, strength of the cell-cell interactions, interactions of the cells with the microelectrodes and by the overall morphology of the cells. The RTCA Software calculates the Cell Index (CI) as the relative change in measured impedance to represent cell status. The normalized cell index (NCI—plotted on y axis) is the relative cell impedance presented in the percentage of the value at the base-time. […] NCI increases by rise of cell-number or cell-size. For example NCI value in a culture treated with a proliferation inhibitory drug first can increase (because the cell-size grows) and after decreases (because the cell-number reduces)

CC(=O)O[C@@]12CO[C@@H]1C[C@H](O)[C@@]1(C)C(=O)[C@H](O)C3=C(C)[C@@H](OC(=O)[C@H](O)[C@@H](NC(=O)OC(C)(C)C)c4ccccc4)C[C@@](O)([C@@H](OC(=O)c4ccccc4)[C@H]21)C3(C)C [docetaxel, 1,7β,10β-trihydroxy-9-oxo-5β,20-epoxytax-11-ene-2α,4,13α-triyl 4-acetate 2-benzoate 13-{(2R,3S)-3-[(tert-butoxycarbonyl)amino]-2-hydroxy-3-phenylpropanoate}]
effect on growth profile (normalized cell index) of tumor cell lines: similar
